The target of test [1] is T1, human progesterone receptor (Homo sapiens, UniProt P06401).
T1 sequence (P06401 1-933): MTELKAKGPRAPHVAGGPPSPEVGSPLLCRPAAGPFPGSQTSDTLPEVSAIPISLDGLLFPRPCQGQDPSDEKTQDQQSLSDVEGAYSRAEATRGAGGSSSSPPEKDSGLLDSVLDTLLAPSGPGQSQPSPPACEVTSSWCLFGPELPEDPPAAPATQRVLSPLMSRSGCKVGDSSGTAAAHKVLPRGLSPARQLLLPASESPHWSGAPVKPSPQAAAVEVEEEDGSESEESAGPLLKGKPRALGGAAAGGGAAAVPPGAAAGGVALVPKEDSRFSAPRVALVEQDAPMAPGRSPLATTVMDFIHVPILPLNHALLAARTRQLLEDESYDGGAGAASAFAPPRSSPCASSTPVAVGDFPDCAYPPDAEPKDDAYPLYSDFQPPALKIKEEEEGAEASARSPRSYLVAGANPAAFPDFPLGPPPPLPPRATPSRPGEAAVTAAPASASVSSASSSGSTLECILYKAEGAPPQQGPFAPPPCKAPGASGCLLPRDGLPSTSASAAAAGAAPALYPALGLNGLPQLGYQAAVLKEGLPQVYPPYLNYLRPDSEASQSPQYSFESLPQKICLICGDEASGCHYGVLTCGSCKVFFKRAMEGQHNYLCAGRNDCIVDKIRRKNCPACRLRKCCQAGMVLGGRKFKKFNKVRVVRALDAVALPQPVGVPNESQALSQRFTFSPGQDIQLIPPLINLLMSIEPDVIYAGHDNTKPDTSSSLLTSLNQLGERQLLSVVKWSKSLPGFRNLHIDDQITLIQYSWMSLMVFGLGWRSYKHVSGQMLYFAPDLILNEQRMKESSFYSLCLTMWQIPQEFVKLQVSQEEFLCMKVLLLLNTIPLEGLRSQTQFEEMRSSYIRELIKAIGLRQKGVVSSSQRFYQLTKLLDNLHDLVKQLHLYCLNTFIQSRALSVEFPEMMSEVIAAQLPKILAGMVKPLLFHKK
As to the kind of experiment: Progesterone receptor binding (displacement of 3H-progesterone, whole cell extract of transfected CV-1 cells). More on the design: expressed in transfected cells; host or cells: CV-1 cells (calcium phosphate transfection), whole cell extract. The protocol: These tests were conducted according to the following illustrative example.
CO2 for 40 hours prior to harvest.
After incubation, cells were harvested and washed in phosphate buffered saline. Whole cell receptor extract was prepared by homogenizing the harvested cells in Tris-HCl buffer, pH=7.4, containing 30% glycerol, 1 mM EDTA, 12 mM monothioglycerol, 1 mM PMSF, and 0.5M potassium chloride. The homogenate was incubated at 4° C. for 60 min with resuspension every 10 min. The suspension was centrifuged (105,000×g, 60 min) and the supernatant was collected and flash frozen in liquid nitrogen and stored frozen at -70° C.
To a […] final volume incubation mixture, […] of 7.5% (w/v) dextran-coated charcoal suspension in gelatin phosphate buffer was added. The mixture was vortexed and incubated at 4° C. for 10 min and then centrifuged at 3000 rpm for 10 min. The amount of bound tritiated hormone was determined by liquid scintillation spectrophotometry of an aliquot of the supernatant. […]
(Displacement assays read how much labelled ligand stays bound in the presence of the test substance.)

Test [2] deals with progesterone receptor (T47D cells). As to the kind of experiment: Antagonist assay in T47D (human breast cancer) cells (Tables 1 and 2). The format is cell-based. To be noted: for Efficacy (% maximal response relative to RU-486), T47D cells: antagonist activity; for IC50: concentration required to reduce the maximal response by 50%, read-out: Potency (IC50), T47D cells. The source says:
The functional activities of the cyclocymopol analogues in the human breast cell line, T47D, were also investigated. T47D cells have proven to be a particularly useful model to investigate the molecular actions of sex steroids because they contain endogenous functional receptors for, and respond to, progestins, and their respective antagonists. […] In T47D cells, progestins induce de novo synthesis of a plasma-associated alkaline phosphatase, which has been reported to be similar, if not identical, to the alkaline phosphatase present in the normal breast and human milk. These tests were conducted according to the following illustrative example.
The assay was also run using T47D (human breast cancer) cells.

Test [3] concerns human progesterone receptor altered at the Tau-1 location. As to the kind of experiment: Co-transfection assay in CV-1 cells, progesterone receptor altered at Tau-1, antagonist activity. The test is classed as cell-based. The settings on record: for Efficacy (% maximal response relative to RU-486), CV-1 cells: antagonist activity; for IC50: concentration required to reduce the maximal response by 50%, read-out: Potency (IC50), CV-1 cells. The source says:
This assay is described in further detail in U.S. Pat. Nos. 4,981,784 and 5,071,773, which are incorporated herein by reference. The co-transfection assay provides a method for identifying functional ligands (either agonists which mimic, or antagonists which inhibit, the effect of hormones) for ligand-responsive receptor proteins.
The co-transfection assay provides a mechanism to evaluate ability of a compound to function as an agonist or antagonist of the activity modulated by an intracellular receptor. The co-transfection assay mimics an in vivo system in the laboratory. In the co-transfection assay, a cloned gene for an intracellular receptor is introduced by transfection (a procedure to induce cells to take up foreign genes) into a background cell substantially devoid of endogenous intracellular receptors. This introduced gene directs the recipient cells to make the intracellular receptor protein. A second gene is also introduced (co-transfected) into the same cells in conjunction with the intracellular receptor gene. This second gene functions as a reporter for the transcription-modulating activity of the target intracellular receptor. The reporter acts as a surrogate for the products normally expressed by a gene under control of the target receptor and its natural hormone.
A preferred reporter gene is one which expresses the firefly enzyme luciferase. The co-transfection assay can detect small molecule agonists or antagonists of target intracellular receptors. Exposing the cells to an agonist ligand increases reporter activity in the transfected cells that can be conveniently measured, reflecting ligand-dependent, intracellular receptor-mediated increases in reporter transcription. To detect antagonists, the co-transfection assay is carried out in the presence of a constant concentration of an agonist known to induce a defined reporter signal. Increasing concentrations of a test antagonist will decrease the reporter signal. The co-transfection assay is therefore useful to detect both agonists and antagonists of specific intracellular receptors. It determines not only whether a compound interacts with a particular intracellular receptor, but also whether this interaction mimics (agonizes) or blocks (antagonizes) the effects of the natural regulatory molecules on target gene expression.
Co-transfected cells are exposed to a medium to which is added the potential ligand that is being evaluated. If the candidate ligand diffuses into the cell and binds to the receptor and the resulting complex functions as an agonist, it binds to the co-transfected reporter gene and initiates transcription. When that gene is one that expresses, for example, luciferase, luciferase is produced which catalyzes a light-emitting reaction with its substrate luciferin. Thus, after cell lysis and the introduction of luciferin, the amount of light produced relative to the concentration of candidate ligand used in the assay provides a measure of the potency and efficacy of the compound tested. Antagonist activity is evaluated by adding the candidate ligand and a known agonist to the co-transfected cells.
The receptor cDNA was introduced in a mammalian expression vector under the control of the Rous Sarcoma virus LTR. […] A reporter vector was also transfected, containing a firefly luciferase gene under the control of the hormone-responsive promoter. […] The level of luciferase activity was then measured in cell extracts. Light emission is directly proportional to the effectiveness of the hormone-receptor complex in activating gene expression.
A total of three replicates per concentration point were tested for each compound, and the EC50 was calculated for each positive response. Both agonist and antagonist activity for each test compound was determined in parallel. […]

For the molecule `C=C1CCCC(C)(C)C1Cc1cc(OC)c(Br)cc1OC(C)=O` (racemic) [A, 1-Methylidene-2-(2'-acetoxy-4'-bromo-5'-methoxyphenyl)methyl-3,3-dimethylcyclohexane], in test [1], the Kd was found to be 100 nM. Besides, in test [2], the “Efficacy (% maximal response relative to RU-486), T47D cells” value amounted to 70% and the IC50 turned out to be 200 nM. Further, in test [3], the “Efficacy (% maximal response relative to RU-486), CV-1 cells” value turned out to be 55% and the 50% inhibitory concentration (IC50) was 225 nM.
With `C=C1C[C@H](C)CC(C)(C)[C@@H]1Cc1cc(OC)c(Br)cc1O` (relative stereo) [BB, cis-1-Methylidene-2-(2'-hydroxy-4'-bromo-5'-methoxyphenyl)methyl-3,3,5-trimethyleyclohexane], in test [1], the Kd was 28 nM. For the same molecule, in test [2], the “Efficacy (% maximal response relative to RU-486), T47D cells” value is on record as 41% and the IC50 came out at 7190 nM. Besides, in test [3], the “Efficacy (% maximal response relative to RU-486), CV-1 cells” value worked out at 38% and the 50% inhibitory concentration (IC50) was 5140 nM.
As for `C=C1C[C@@](C)(CO)CC(C)(C)[C@@H]1Cc1cc(OC)c(Br)cc1O` (relative stereo) [HH, trans-1-Methylidene-2-(2'-hydroxy-4'-bromo-5'-methoxyphenyl)methyl-3,3,5-trimethyl-5-(hydroxymethyl)cyclohexane], the Kd in test [1] is 2310 nM. For the same molecule, in test [2], the “Efficacy (% maximal response relative to RU-486), T47D cells” value was 81% and the IC50 amounted to 1100 nM. Also, in test [3], the “Efficacy (% maximal response relative to RU-486), CV-1 cells” value is 85% and the IC50 is 3000 nM.
On to `C=C1C=C(C)[C@@H](CCO)C(C)(C)[C@@H]1Cc1cc(OC)c(Br)cc1O` (relative stereo) [JJ, trans-1-Methylidene-4-(2-hydroxy)ethyl-6-(2'-hydroxy-4'-bromo-5'-methoxyphenyl)methyl-3,5,5-trimethylcyclohex-2-ene], for which the dissociation constant Kd in test [1] was determined as 625 nM. In test [2], the “Efficacy (% maximal response relative to RU-486), T47D cells” value is 74% and the IC50 was 3600 nM. In test [3], the “Efficacy (% maximal response relative to RU-486), CV-1 cells” value was determined as 48% and the IC50 turned out to be 30 nM.
As to `C=C1C=C[C@@H](C)C(C)(C)[C@@H]1Cc1cc(OC)c(Br)cc1O` (relative stereo) [KK, trans-1-Methylidene-6-(2'-hydroxy-4'-bromo-5'-methoxyphenyl)methyl-4,5,5-trimethylcyclohex-2-ene], in test [1], the Kd was found to be 346 nM. Also, in test [2], the “Efficacy (% maximal response relative to RU-486), T47D cells” value came to 76% and the IC50 amounted to 1300 nM. In test [3], the “Efficacy (% maximal response relative to RU-486), CV-1 cells” value is on record as 75% and the half-maximal inhibitory concentration (IC50) is 1600 nM.
Turning to `C=C1CC[C@@H](C)C(C)(C)[C@@H]1Cc1cc(OC)c(Br)cc1O` (relative stereo) [LL, trans-1-Methylidene-2-(2'-hydroxy-4'-bromo-5'-methoxyphenyl)methyl-3,3,4-trimethylcyclohexane], the Kd in test [1] is 269 nM. In test [2], the “Efficacy (% maximal response relative to RU-486), T47D cells” value is given as 74% and the IC50 came to 500 nM. Also, in test [3], the “Efficacy (% maximal response relative to RU-486), CV-1 cells” value is 91% and the IC50 is 1600 nM.
For `C=C1CCCC(C)(C)C1Cc1cc(OC)c(Br)cc1O` (stereo in doubt) [G, (3S)-1-Debromocyclocymopol monomethyl ether], in test [2], the “Efficacy (% maximal response relative to RU-486), T47D cells” value was 50%. The “Efficacy (% maximal response relative to RU-486), CV-1 cells” value in test [3] is given as 45%.
Take `C=C1C(C)=CCC(C)(C)C1Cc1cc(OC)c(Br)cc1OC(C)=O` (stereo in doubt) [Z, (3R)-5-Methyl-5,6-dehydro-1-debromocyclocymopol monomethyl ether, acetate]: in test [2], the “Efficacy (% maximal response relative to RU-486), T47D cells” value came out at 81% and the IC50 was found to be 210 nM. Moreover, in test [3], the “Efficacy (% maximal response relative to RU-486), CV-1 cells” value is given as 83% and the concentration for half-maximal inhibition (IC50) was found to be 660 nM.
With `C=C1CCCC(C)(C)C1Cc1cc(OC)c(Br)cc1O` (stereo not shown) [C, 1-Methylidene-2-(2'-hydroxy-4'-bromo-5'-methoxy-phenyl)methyl-3.3-dimethylcyclohexane], the “Efficacy (% maximal response relative to RU-486), T47D cells” value in test [2] is recorded as 70%. Besides, the “Efficacy (% maximal response relative to RU-486), CV-1 cells” value in test [3] is listed as 55%.
`C=C1C=C(C)CC(C)(C)C1Cc1ccc2nonc2c1` (stereo not shown) [FF, 1-Methylidene-6-(benzofurazan-5'-yl)methyl-3,5,5-trimethylcyclohex-2-ene]: in test [2], the “Efficacy (% maximal response relative to RU-486), T47D cells” value is 71% and the half-inhibitory concentration (IC50) was determined as 775 nM. Moreover, in test [3], the “Efficacy (% maximal response relative to RU-486), CV-1 cells” value is reported as 72% and the IC50 turned out to be 1950 nM.
`C=C1C=C(C)CC(C)(C)C1C/C=C/c1cc(OC)c(Br)cc1O` (stereo not drawn) [GG, 1-Methylidene-6-[trans-(2'-Hydroxy-4'-bromo-5'-methoxyphenyl)-1-propenyl]-3,5,5-trimethylcyclohex-2-ene]: in test [2], the “Efficacy (% maximal response relative to RU-486), T47D cells” value is 65% and the concentration for half-maximal inhibition (IC50) came to 1600 nM. Further, in test [3], the “Efficacy (% maximal response relative to RU-486), CV-1 cells” value was 61% and the IC50 was 3300 nM.
Turning to `C=C1C=C(C)CC(C)(C)C1Cc1cc(OC)c(Br)cc1O` (stereo not shown) [II, 1-Methylidene-6-(2'-hydroxy-4'-bromo-5'-methoxyphenyl)methyl-3,5,5-trimethylcyclohex-2-ene], in test [3], the IC50 amounted to 3570 nM.
On to `C=C1C=CCC(C)(C)C1Cc1cc(OC)c(Br)cc1O` (stereo not shown) [K, 1-Methylidene-6-(2'-hydroxy-4'-bromo-5'-methoxyphenyl)methyl-5,5-dimethylcyclohex-2-ene], for which the “Efficacy (% maximal response relative to RU-486), T47D cells” value in test [2] is 70%. Besides, in test [3], the “Efficacy (% maximal response relative to RU-486), CV-1 cells” value is 70%.

One may read the Kd as the equilibrium constant for the complex coming apart. One may read the IC50 as the concentration needed to halve the response being measured.

Source of the values: patent US5808139A (Ligand Pharmaceuticals Incorporated, priority 1994, dated 1998).
